Our source for the IC50 values is patent US6784174B1, “Pyridine and pyrimidine derivatives and their use as inhibitors of cytokine mediated disease” (AstraZeneca AB, priority 1999, dated 2004).

The experiment deals with T1, p38α (Homo sapiens, UniProt Q16539).
T1 construct: c-myc (N); 6His (N); made in house; host or cells: E. coli (PET vectors)
T1 sequence (Q16539 whole entry): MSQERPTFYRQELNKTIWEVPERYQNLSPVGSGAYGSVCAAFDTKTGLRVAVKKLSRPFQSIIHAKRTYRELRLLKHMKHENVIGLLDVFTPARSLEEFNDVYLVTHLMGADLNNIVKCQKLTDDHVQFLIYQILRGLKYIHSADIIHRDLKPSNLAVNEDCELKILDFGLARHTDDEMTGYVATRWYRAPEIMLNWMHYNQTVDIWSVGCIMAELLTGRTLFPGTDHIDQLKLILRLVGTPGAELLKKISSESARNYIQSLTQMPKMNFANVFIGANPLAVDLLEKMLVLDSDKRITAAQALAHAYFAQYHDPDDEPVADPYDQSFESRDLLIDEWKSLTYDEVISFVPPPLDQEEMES
Put plainly: In vitro enzyme assay, p38 kinase (p38α isoform). Format: biochemical. The procedure:
The ability of compounds of the invention to inhibit the enzyme p38 kinase was assessed. Activity of particular test compounds against each of the p38α and p38β isoforms of the enzyme was determined.
Human recombinant MKK6 (GenBank Accesion Number G1209672) was isolated from Image clone 45578 (Genomics, 1996, 33, 151) and utilised to produce protein in the form of a GST fusion protein in a pGEX vector using analogous procedures to those disclosed by J. Han et al., Journal of Biological Chemistry, 1996, 271, 2886-2891. p38α (GenBank Accession Number G529039) and p38β (GenBank Accession Number G1469305) were isolated by PCR amplification of human lymphoblastoid cDNA (GenBank Accession Number GM1416) and human foetal brain cDNA [synthesised from mRNA (Clontech, catalogue no. 6525-1) using a Gibco superscript cDNA synthesis kit] respectively using oligonucleotides designed for the 5′ and 3′ ends of the human p38α and p38β genes using analogous procedures to those described by J. Han et al., Biochimica et Biophysica Acta, 1995, 126, 224-227 and Y. Jiang et al., Journal of Biological Chemistry, 1996, 271, 17920-17926.
Both p38 protein isoforms were expressed in e coli in PET vectors. Human recombinant p38α and p38β isoforms were produced as 5′ c-myc, 6His tagged proteins. Both MKK6 and the p38 proteins were purified using standard protocols: the GST MKK6 was purified using a glutathione sepharose column and the p38 proteins were purified using nickel chelate columns.
The p38 enzymes were activated prior to use by incubation with MKK6 for 3 hours at 30° C. The unactivated coli-expressed MKK6 retained sufficient activity to fully activate both isoforms of p38. The activation incubate comprised p38α (10 μl of 10 mg/ml) or p38β (10 μl of 5 mg/ml) together with MKK6 (10 μl of 1 mg/ml), ‘Kinase buffer’ [100 μl; pH 7.4 buffer comprising Tris (50 mM), EGTA (0.1 mM), sodium orthovanadate (0.1 mM) and β-mercaptoethanol (0.1%)] and MgATP (30 μl of 50 mM Mg(OCOCH3)2 and 0.5 mM ATP). This produced enough activated p38 enzyme for 3 Microtiter plates.
Test compounds were solubilised in DMSO and 10 μl of a 1:10 diluted sample in ‘Kinase Buffer’ was added to a well in a Microtiter plate. […] The precipitated protein was phosphorylated by p38 kinase and test compounds were assessed for their ability to inhibit this phosphorylation. The plates were filtered using a Canberra Packard Unifilter and washed with 2% TCA, dried overnight and counted on a Top Count scintillation counter.
Test compounds were tested initially at a single dose and active compounds were retested to allow IC50 values to be determined.
`Cc1ccc(NC(=O)c2ccnc(N3CCOCC3)c2)cc1Nc1ncnc2scc(C)c12` [Example 2, 4-[2-Methyl-5-(2-morpholinopyridine-4-carboxamido)anilino]-5-methylthieno[2,3-d]pyrimidine] displayed an IC50 of 340 nM.
As for `Cc1ccc(NC(=O)c2ccnc(N3CCOCC3)c2)cc1Nc1ncnc2sccc12` [3(2)], the figure is 70 nM.
As for `Cc1ccc(NC(=O)c2ccnc(N3CCOCC3)c2)cc1Nc1ncnc2c(C)csc12` [3(1)], the figure is 40 nM.
As for `Cc1ccc(NC(=O)c2ccnc(N3CCOCC3)c2)cc1Nc1ncnc2ccsc12` [Example 1, 4-[2-Methyl-5-(2-morpholinopyridine-4-carboxamido)anilino]thieno[3,2-d]pyrimidine], the figure is 60 nM.

As a reminder, the IC50 is the concentration that inhibits the measured activity by half. Low values mean greater potency in that assay, high ones weaker potency in that assay.
